Source: US7709636B2, “Pyrazole sulfonylurea compound and herbicide” (Nissan Chemical Industries, Ltd., priority 2004, dated 2010)

Experiments:
Digitaria adscendes [1] = test: Herbicidal effect test by soil treatment; format: in vivo; conditions: 1.6 g/a, 3 weeks after treatment
Text: (§1) Herbicidal Effect Test by Soil Treatment
(§2) Sterilized diluvial soil was placed in a plastic box having a size of length 21 cm, width 13 cm and depth 7 cm, seeds Echinochloa crus-galli, Digitaria adscendes, Setaria viridis, Avena fatua, Black-grass, Abutilon avicennae, Ambrosia elatior, Amaranthus retroflexus, Chenopodium album, Polygonum blumei, Stellaria media, Zea mays (corn), Glycine max (soybean), Oryza sativa (rice), Triticum aestivum (wheat) and Beta vulgaris (beat) were sown interspatially, covered with about 1.5 cm of soil, and then the wettable powder of the present invention prepared according to Formulation Example 1 was diluted with water so as to give a predetermined formulation amount, and the surface of the soil was uniformly treated with the diluted wettable powder by use of a small-sized spray. The herbicidal effect for each plant was investigated 3 weeks after treatment with the herbicide according to the criteria indicated in Test Example 1.

Beta vulgaris (beet) [2] = test: Herbicidal effect test by soil treatment; format: in vivo; conditions: 1.6 g/a, 3 weeks after treatment
Text: as §1, §2

Amaranthus retroflexus [3] = test: Herbicidal effect test by soil treatment; format: in vivo; conditions: 1.6 g/a, 3 weeks after treatment
Text: as §1, §2

Stellaria media [4] = test: Herbicidal effect test by soil treatment; format: in vivo; conditions: 1.6 g/a, 3 weeks after treatment
Text: as §1, §2

Setaria viridis [5] = test: Herbicidal effect test by soil treatment; format: in vivo; conditions: 1.6 g/a, 3 weeks after treatment
Text: as §1, §2

Ambrosia elatior [6] = test: Herbicidal effect test by soil treatment; format: in vivo; conditions: 1.6 g/a, 3 weeks after treatment
Text: as §1, §2

Echinochloa crus-galli [7] = test: Herbicidal effect test by soil treatment; format: in vivo; conditions: 1.6 g/a, 3 weeks after treatment
Text: as §1, §2

Abutilon avicennae [8] = test: Herbicidal effect test by soil treatment; format: in vivo; conditions: 1.6 g/a, 3 weeks after treatment
Text: as §1, §2

corn (Zea mays) [9] = test: Herbicidal effect test by soil treatment; format: in vivo; conditions: 1.6 g/a, 3 weeks after treatment
Text: as §1, §2

Polygonum blumei [10] = test: Herbicidal effect test by soil treatment; format: in vivo; conditions: 1.6 g/a, 3 weeks after treatment
Text: as §1, §2

soybean (Glycine max) [11] = test: Herbicidal effect test by soil treatment; format: in vivo; conditions: 1.6 g/a, 3 weeks after treatment
Text: as §1, §2

Chenopodium album [12] = test: Herbicidal effect test by soil treatment; format: in vivo; conditions: 1.6 g/a, 3 weeks after treatment
Text: as §1, §2

Digitaria adscendes [13] = test: Herbicidal effect test by foliage treatment; format: in vivo; conditions: 1.6 g/a; foliage treatment after growth of 14 days; 3 weeks after treatment
Text: (§3) Herbicidal Effect Test by Foliage Treatment
(§4) Sterilized diluvial soil was placed in a plastic box having a size of length 21 cm, width 13 cm and depth 7 cm, seeds of Echinochloa crus-galli, Digitaria adscendes, Setaria viridis, Avena fatua, Black-grass, Abutilon avicennae, Ambrosia elatior, Amaranthus retroflexus, Chenopodium album, Polygonum blumei, Stellaria media, Zea mays, Glycine max, Oryza sativa, Triticum aestivum and Beta vulgaris were sown interspatially, covered with about 1.5 cm of soil, and then the plants were grown by putting the box in a green house at 25 to 30° C. After growth of 14 days, the wettable powder of the present invention prepared according to Formulation Example 1 was diluted with water so as to give a predetermined formulation amount, and the foliage part was uniformly treated with the diluted wettable powder by use of a small-sized spray. The herbicidal effect for each plant was investigated 3 weeks after treatment with the herbicide according to the criteria indicated in Test Example 1.

Beta vulgaris (beet) [14] = test: Herbicidal effect test by foliage treatment; format: in vivo; conditions: 1.6 g/a; foliage treatment after growth of 14 days; 3 weeks after treatment
Text: as §3, §4

Amaranthus retroflexus [15] = test: Herbicidal effect test by foliage treatment; format: in vivo; conditions: 1.6 g/a; foliage treatment after growth of 14 days; 3 weeks after treatment
Text: as §3, §4

[16] = tested on: Triticum aestivum (wheat); test: Herbicidal effect test by foliage treatment; format: in vivo; conditions: 1.6 g/a; foliage treatment after growth of 14 days; 3 weeks after treatment
Text: as §3, §4

Black-grass = test: Herbicidal effect test by foliage treatment; format: in vivo; conditions: 1.6 g/a; foliage treatment after growth of 14 days; 3 weeks after treatment
Text: as §3, §4

Stellaria media [17] = test: Herbicidal effect test by foliage treatment; format: in vivo; conditions: 1.6 g/a; foliage treatment after growth of 14 days; 3 weeks after treatment
Text: as §3, §4

Setaria viridis [18] = test: Herbicidal effect test by foliage treatment; format: in vivo; conditions: 1.6 g/a; foliage treatment after growth of 14 days; 3 weeks after treatment
Text: as §3, §4

Ambrosia elatior [19] = test: Herbicidal effect test by foliage treatment; format: in vivo; conditions: 1.6 g/a; foliage treatment after growth of 14 days; 3 weeks after treatment
Text: as §3, §4

Avena fatua = test: Herbicidal effect test by foliage treatment; format: in vivo; conditions: 1.6 g/a; foliage treatment after growth of 14 days; 3 weeks after treatment
Text: as §3, §4

Echinochloa crus-galli [20] = test: Herbicidal effect test by foliage treatment; format: in vivo; conditions: 1.6 g/a; foliage treatment after growth of 14 days; 3 weeks after treatment
Text: as §3, §4

Abutilon avicennae [21] = test: Herbicidal effect test by foliage treatment; format: in vivo; conditions: 1.6 g/a; foliage treatment after growth of 14 days; 3 weeks after treatment
Text: as §3, §4

corn (Zea mays) [22] = test: Herbicidal effect test by foliage treatment; format: in vivo; conditions: 1.6 g/a; foliage treatment after growth of 14 days; 3 weeks after treatment
Text: as §3, §4

Polygonum blumei [23] = test: Herbicidal effect test by foliage treatment; format: in vivo; conditions: 1.6 g/a; foliage treatment after growth of 14 days; 3 weeks after treatment
Text: as §3, §4

soybean (Glycine max) [24] = test: Herbicidal effect test by foliage treatment; format: in vivo; conditions: 1.6 g/a; foliage treatment after growth of 14 days; 3 weeks after treatment
Text: as §3, §4

Chenopodium album [25] = test: Herbicidal effect test by foliage treatment; format: in vivo; conditions: 1.6 g/a; foliage treatment after growth of 14 days; 3 weeks after treatment
Text: as §3, §4

direct sown rice [26] = test: Herbicidal effect test by foliage treatment; format: in vivo, Oryza sativa; conditions: 1.6 g/a; foliage treatment after growth of 14 days; 3 weeks after treatment
Text: as §3, §4

Monochoria vaginalis [27] = test: Herbicidal effect test in submerged condition by treatment before weed-generation (1); format: in vivo; conditions: 0.64 g/a, water surface treated on day of sowing, 3 weeks after treatment
Text: (§5) Herbicidal Effect Test in Submerged Condition by Treatment Before Weed-Generation (1)
(§6) After alluvial soil was placed in a styrol cup of 1/30000 are, water was poured therein and mixed, and adjusted to a submerged condition of water depth 4 cm. After seeds of Echinochloa crus-galli, Scirpus juncoides and Monochoria vaginalis were sown in the cup, rice seedlings at 2.5th leaf stage were transplanted. On the day when the seeds were sown, the wettable powder of the present invention prepared according to Formulation Example 1 was diluted with water so as to give a predetermined formulation amount, and the surface of the water was treated with the diluted wettable powder. The plants were grown by putting the cup in a green house at 25 to 30° C., and investigated on herbicidal effect against each weed 3 weeks after treatment with the herbicide according to the following criteria.
(§7) 5 Herbicidal rate 90% or more (almost complete death)
(§8) 4 Herbicidal rate 70% or more and less than 90%
(§9) 3 Herbicidal rate 40% or more and less than 70%
(§10) 2 Herbicidal rate 20% or more and less than 40%
(§11) 1 Herbicidal rate 5% or more and less than 20%
(§12) 0 Herbicidal rate 5% or less (little effect)

Scirpus juncoides [28] = test: as above; format: in vivo; conditions: 0.64 g/a, water surface treated on day of sowing, 3 weeks after treatment
Text: as §5, §6, §7, §8, §9, §10, §11, §12

Echinochloa crus-galli [29] = test: as above; format: in vivo; conditions: 0.64 g/a, water surface treated on day of sowing, 3 weeks after treatment
Text: as §5, §6, §7, §8, §9, §10, §11, §12

direct sown rice [30] = test: Herbicidal effect test by soil treatment; format: in vivo, Oryza sativa; conditions: 1.6 g/a, 3 weeks after treatment
Text: as §1, §2

Monochoria vaginalis [31] = test: Herbicidal effect test in submerged condition by treatment during weed-growth stage (1); format: in vivo; conditions: 0.64 g/a, treated at 1st to 2nd leaf stage, 3 weeks after treatment
Protocol: (§13) Herbicidal Effect Test in Submerged Condition by Treatment During Weed-Growth Stage (1) After alluvial soil was placed in a styrol cup of 1/30000 are, water was poured therein and mixed, and adjusted to a submerged condition of water depth 4 cm. After seeds of Echinochloa crus-galli, Scirpus juncoides and Monochoria vaginalis were sown in the cup, the plants were grown by putting the cup in a green house at 25 to 30° C. When Echinochloa crus-galli, Scirpus juncoides and Monochoria vaginalis reached 1st to 2nd leaf stage, the wettable powder of the present invention prepared according to Formulation Example 1 was diluted with water so as to give a predetermined formulation amount, and the surface of the water was treated with the diluted wettable powder. The herbicidal effect for each plant was investigated 3 weeks after treatment with the herbicide according to the criteria indicated in Test Example 1.

Scirpus juncoides [32] = test: as above; format: in vivo; conditions: 0.64 g/a, treated at 1st to 2nd leaf stage, 3 weeks after treatment
Protocol: as §13

Echinochloa crus-galli [33] = test: as above; format: in vivo; conditions: 0.64 g/a, treated at 1st to 2nd leaf stage, 3 weeks after treatment
Protocol: as §13

COc1cc(OC)nc(NC(=O)NS(=O)(=O)c2c(C3=NOCC(CI)O3)c(Cl)nn2C)n1 (centres unmarked) [Compound 2, N-((4,6-dimethoxypyrimidin-2-yl)aminocarbonyl)-3-chloro-4-(5-iodomethyl-5H,6H-1,4,2-dioxadin-3-yl)-1-methylpyrazole-5-sulfonamide]
herbicidal effect, D: Digitaria adscendes (Digitaria adscendes [1]): 0 (Herbicidal rate 5% or less (little effect))
herbicidal effect, f: Beta vulgaris (beet) (Beta vulgaris (beet) [2]): 2 (Herbicidal rate 20% or more and less than 40%)
herbicidal effect, J: Amaranthus retroflexus (Amaranthus retroflexus [3]): 1 (Herbicidal rate 5% or more and less than 20%)
herbicidal effect, M: Stellaria media (Stellaria media [4]): 3 (Herbicidal rate 40% or more and less than 70%)
herbicidal effect, E: Setaria viridis (Setaria viridis [5]): 0 (Herbicidal rate 5% or less (little effect))
herbicidal effect, I: Ambrosia elatior (Ambrosia elatior [6]): 3 (Herbicidal rate 40% or more and less than 70%)
herbicidal effect, A: Echinochloa crus-galli (Echinochloa crus-galli [7]): 0 (Herbicidal rate 5% or less (little effect))
herbicidal effect, H: Abutilon avicennae (Abutilon avicennae [8]): 0 (Herbicidal rate 5% or less (little effect))
herbicidal effect, b: corn (Zea mays) (corn (Zea mays) [9]): 0 (Herbicidal rate 5% or less (little effect))
herbicidal effect, L: Polygonum blumei (Polygonum blumei [10]): 0 (Herbicidal rate 5% or less (little effect))
herbicidal effect, c: soybean (Glycine max) (soybean (Glycine max) [11]): 0 (Herbicidal rate 5% or less (little effect))
herbicidal effect, K: Chenopodium album (Chenopodium album [12]): 4 (Herbicidal rate 70% or more and less than 90%)
herbicidal effect, D: Digitaria adscendes (Digitaria adscendes [13]): 1 (Herbicidal rate 5% or more and less than 20%)
herbicidal effect, f: Beta vulgaris (beet) (Beta vulgaris (beet) [14]): 4 (Herbicidal rate 70% or more and less than 90%)
herbicidal effect, J: Amaranthus retroflexus (Amaranthus retroflexus [15]): 0 (Herbicidal rate 5% or less (little effect))
herbicidal effect, e: Triticum aestivum (wheat) [16]: 0 (Herbicidal rate 5% or less (little effect))
herbicidal effect, G: Black-grass (Black-grass): 1 (Herbicidal rate 5% or more and less than 20%)
herbicidal effect, M: Stellaria media (Stellaria media [17]): 5 (Herbicidal rate 90% or more (almost complete death))
herbicidal effect, E: Setaria viridis (Setaria viridis [18]): 1 (Herbicidal rate 5% or more and less than 20%)
herbicidal effect, I: Ambrosia elatior (Ambrosia elatior [19]): 4 (Herbicidal rate 70% or more and less than 90%)
herbicidal effect, F: Avena fatua (Avena fatua): 0 (Herbicidal rate 5% or less (little effect))
herbicidal effect, A: Echinochloa crus-galli (Echinochloa crus-galli [20]): 3 (Herbicidal rate 40% or more and less than 70%)
herbicidal effect, H: Abutilon avicennae (Abutilon avicennae [21]): 5 (Herbicidal rate 90% or more (almost complete death))
herbicidal effect, b: corn (Zea mays) (corn (Zea mays) [22]): 4 (Herbicidal rate 70% or more and less than 90%)
herbicidal effect, L: Polygonum blumei (Polygonum blumei [23]): 0 (Herbicidal rate 5% or less (little effect))
herbicidal effect, c: soybean (Glycine max) (soybean (Glycine max) [24]): 4 (Herbicidal rate 70% or more and less than 90%)
herbicidal effect, K: Chenopodium album (Chenopodium album [25]): 4 (Herbicidal rate 70% or more and less than 90%)
herbicidal effect, d: direct sown rice (direct sown rice [26]): 0 (Herbicidal rate 5% or less (little effect))
herbicidal effect, C: Monochoria vaginalis (Monochoria vaginalis [27]): 5 (Herbicidal rate 90% or more (almost complete death))
herbicidal effect, B: Scirpus juncoides (Scirpus juncoides [28]): 5 (Herbicidal rate 90% or more (almost complete death))
herbicidal effect, A: Echinochloa crus-galli (Echinochloa crus-galli [29]): 4 (Herbicidal rate 70% or more and less than 90%)
herbicidal effect, d: direct sown rice (direct sown rice [30]): 0 (Herbicidal rate 5% or less (little effect))
herbicidal effect, C: Monochoria vaginalis (Monochoria vaginalis [31]): 4 (Herbicidal rate 70% or more and less than 90%)
herbicidal effect, B: Scirpus juncoides (Scirpus juncoides [32]): 4 (Herbicidal rate 70% or more and less than 90%)
herbicidal effect, A: Echinochloa crus-galli (Echinochloa crus-galli [33]): 2 (Herbicidal rate 20% or more and less than 40%)
